- melting point: 131 to 133 °C
SMILES: CCCS(=O)(=O)N[C@H](C(=O)NCCc1ccc(OCC#Cc2ccc(Cl)cc2)c(OC)c1)C(C)C [Compound 1.204, (S)-2-(Propylsulfonyl-amino)-3-methyl-butyric acid N-[2-{3-methoxy-4-(3-(4-chlorophenyl)-2-propyn-1-yloxy)-phenyl}-ethyl]-amide]
